Source: PubChem BioAssay (NCI)
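All cell lines were grown in 96-well plates and treated with compound for 48 hours. GI50: concentration for 50% inhibition of growth. The concentration for full growth arrest is given as TGI.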

Tests used:
Experiment in all cases: NCI tumour cell line growth inhibition, 48 h
BT-549 breast = tested on: BT-549 breast
786-0 renal = tested on: 786-0 renal
LXFL 529 NSCLC = tested on: LXFL 529 NSCLC
RXF-631 renal = tested on: RXF-631 renal
MDA-N = tested on: MDA-N
P388 leukemia = tested on: P388 leukemia
P388/ADR leukemia = tested on: P388/ADR leukemia
SN12K1 renal = tested on: SN12K1 renal

Compound: N=C(N)c1ccc(-c2ccc(-c3ccccc3)s2)cc1
- GI50 (BT-549 breast): 3.22 µM
- TGI (BT-549 breast): 19.9 µM

Compound: C=C1C(=O)OC2/C=C(/C)C3CC(O)C(C)(CC(OC(=O)/C(C)=C/C)C12)O3 (configuration not stated)
- TGI (786-0 renal): 11.5 µM
- TGI (LXFL 529 NSCLC): 5.84 µM

Compound: O=C1C=CC2=[N+]([O-])C(c3ccccc3)(c3ccccc3)C(=Nc3ccccc3)C2=C1
- TGI (LXFL 529 NSCLC): 3.36 µM
- TGI (RXF-631 renal): 11.1 µM

Compound: CCNc1nnc(-c2nsc3ccccc23)s1
- TGI (LXFL 529 NSCLC): > 100 µM

Compound: Cc1ccc([N+](=O)[O-])cc1S(=O)(=O)Nc1ccc(C2=NNC(c3ccccc3O)C2)cc1 (configuration not stated)
- TGI (BT-549 breast): 63.5 µM
- TGI (MDA-N): 93.5 µM

Compound: CN1CCCCC(C#N)(c2ccccc2)CC1 (configuration not stated)
- TGI (786-0 renal): > 100 µM
- TGI (MDA-N): > 100 µM

Compound: C=C1C(=O)C[C@@]23CCC[C@@]12CC(OCOC)C3 (some centres not stated)
- TGI (P388 leukemia): 1.92 µM
- TGI (P388/ADR leukemia): 2.09 µM
- TGI (SN12K1 renal): 4.13 µM

Compound: Nc1nc(Cl)cc(OCC2(CO)CC(OCc3ccccc3)C2)n1 (configuration not stated)
- GI50 (BT-549 breast): 46 µM
- GI50 (MDA-N): 64.4 µM

Compound: CC(C)CCC[C@@H](C)C1CCC2[C@@H]3CC=C4C[C@@H](C(=O)NCC[N+](C)(C)CCCS(=O)(=O)[O-])CC[C@]4(C)C3CC[C@@]21C (some centres not stated)
- TGI (786-0 renal): 31.1 µM
- TGI (LXFL 529 NSCLC): 33.3 µM
- TGI (RXF-631 renal): 34.6 µM

Compound: COC(=O)c1cccc(N[C@@H]2c3cc4c(cc3C(c3cc(OC)c(O)c(OC)c3)[C@H]3C(=O)OCC32)OCO4)c1 (some centres not stated)
- TGI (P388 leukemia): 0.826 µM
- TGI (P388/ADR leukemia): 1.58 µM
- TGI (SN12K1 renal): 9.75 µM

Compound: CC(=O)Oc1ccc2c(c1)oc1c3ccc(OC(C)=O)cc3n(C)c(=O)c21
- TGI (BT-549 breast): > 100 µM
- TGI (MDA-N): > 100 µM

Compound: CCN(CC)CCCNc1ncc(C)c2[nH]c3ccncc3c12
- TGI (P388 leukemia): 15.3 µM
- TGI (P388/ADR leukemia): > 100 µM
- TGI (SN12K1 renal): 19.9 µM

Compound: Cc1cc(C)c2c(c1)CC1(Cc3c(C)ccc(C)c3C1=O)C2=O (configuration not stated)
- TGI (BT-549 breast): > 100 µM
- TGI (MDA-N): > 100 µM

Compound: S=P1(N2CCCCC2)Oc2ccc3ccccc3c2-c2c(ccc3ccccc23)O1
- TGI (P388 leukemia): > 100 µM
- TGI (P388/ADR leukemia): > 100 µM
- TGI (SN12K1 renal): > 100 µM
